Assay results reported in the kinase profiling compilation of Christmann-Franck et al. (2016).

Tests used:
Experiment in all cases: radiometric filter-binding kinase assay, Kinase HotSpot
Details in all cases: compound 0.5 µM; ATP 10 µM
[1] = target: MELK (human) (UniProt Q14680)
[2] = target: SRPK2 (human) (UniProt P78362)
[3] = tested on: SGK1 (human), O00141 [S422D]
[4] = target: GRK5 (human) (UniProt P34947)
[5] = target: SRPK1 (human) (UniProt Q96SB4)
[6] = target: HIPK2 (human) (UniProt Q9H2X6)
[7] = target: PBK (human) (UniProt Q96KB5)
[8] = target: MAPKAPK5 (human) (UniProt Q8IW41)
[9] = target: CHEK2 (human) (UniProt O96017)
[10] = target: CSNK1G3 (human) (UniProt Q9Y6M4)
[11] = target: GSK3A (human) (UniProt P49840)
[12] = target: CAMKK1 (human) (UniProt Q8N5S9)
[13] = target: EPHA3 (human) (UniProt P29320)
[14] = target: FRK (human) (UniProt P42685)
[15] = target: ABL1 (human) (UniProt P00519)
[16] = target: ROCK1 (human) (UniProt Q13464)
[17] = target: IKBKE (human) (UniProt Q14164)
[18] = target: AURKA (human) (UniProt O14965)
[19] = target: MAP2K2 (human) (UniProt P36507)
[20] = target: PRKCH (human) (UniProt P24723)
[21] = target: MST1R (human) (UniProt Q04912)
[22] = target: MAPKAPK3 (human) (UniProt Q16644)
[23] = target: PRKCG (human) (UniProt P05129)
[24] = target: CDK1 CCNA2 (human) (UniProt P06493+P20248)
[25] = target: PHKG2 (human) (UniProt P15735)
[26] = target: PAK2 (human) (UniProt Q13177)
[27] = target: DYRK1A (human) (UniProt Q13627)
[28] = target: FLT3 (human) (UniProt P36888)
[29] = target: CAMK4 (human) (UniProt Q16566)
[30] = target: DAPK3 (human) (UniProt O43293)
[31] = target: PRKCB1 (human) (UniProt P05771)
[32] = target: NEK7 (human) (UniProt Q8TDX7)
[33] = target: TSSK1B (human) (UniProt Q9BXA7)
[34] = target: EPHA1 (human) (UniProt P21709)
[35] = target: NEK6 (human) (UniProt Q9HC98)
[36] = target: PRKG2 (human) (UniProt Q13237)
[37] = target: PRKD3 (human) (UniProt O94806)
[38] = target: FGFR3 (human) (UniProt P22607)
[39] = target: MARK4 (human) (UniProt Q96L34)
[40] = target: GRK4 (human) (UniProt P32298)
[41] = target: CDK5 CDK5R1 p25 (human) (UniProt Q00535+Q15078)
[42] = target: FLT1 (human) (UniProt P17948)

Sequence of CAMK4 (human) (Q16566 whole entry, looked up): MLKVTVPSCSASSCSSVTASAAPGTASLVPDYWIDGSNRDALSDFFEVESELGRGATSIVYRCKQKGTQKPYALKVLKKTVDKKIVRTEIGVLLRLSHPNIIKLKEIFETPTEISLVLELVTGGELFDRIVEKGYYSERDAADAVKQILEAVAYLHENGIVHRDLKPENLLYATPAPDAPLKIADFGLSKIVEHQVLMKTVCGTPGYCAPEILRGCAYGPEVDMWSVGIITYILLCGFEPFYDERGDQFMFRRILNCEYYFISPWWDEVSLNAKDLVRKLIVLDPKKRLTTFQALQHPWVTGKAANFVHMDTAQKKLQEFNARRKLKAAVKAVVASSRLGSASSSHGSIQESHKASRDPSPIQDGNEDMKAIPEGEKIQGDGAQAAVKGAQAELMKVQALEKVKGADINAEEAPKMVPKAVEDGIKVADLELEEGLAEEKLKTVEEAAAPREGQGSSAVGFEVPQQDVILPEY
Sequence of PRKCB1 (human) (P05771 whole entry, looked up): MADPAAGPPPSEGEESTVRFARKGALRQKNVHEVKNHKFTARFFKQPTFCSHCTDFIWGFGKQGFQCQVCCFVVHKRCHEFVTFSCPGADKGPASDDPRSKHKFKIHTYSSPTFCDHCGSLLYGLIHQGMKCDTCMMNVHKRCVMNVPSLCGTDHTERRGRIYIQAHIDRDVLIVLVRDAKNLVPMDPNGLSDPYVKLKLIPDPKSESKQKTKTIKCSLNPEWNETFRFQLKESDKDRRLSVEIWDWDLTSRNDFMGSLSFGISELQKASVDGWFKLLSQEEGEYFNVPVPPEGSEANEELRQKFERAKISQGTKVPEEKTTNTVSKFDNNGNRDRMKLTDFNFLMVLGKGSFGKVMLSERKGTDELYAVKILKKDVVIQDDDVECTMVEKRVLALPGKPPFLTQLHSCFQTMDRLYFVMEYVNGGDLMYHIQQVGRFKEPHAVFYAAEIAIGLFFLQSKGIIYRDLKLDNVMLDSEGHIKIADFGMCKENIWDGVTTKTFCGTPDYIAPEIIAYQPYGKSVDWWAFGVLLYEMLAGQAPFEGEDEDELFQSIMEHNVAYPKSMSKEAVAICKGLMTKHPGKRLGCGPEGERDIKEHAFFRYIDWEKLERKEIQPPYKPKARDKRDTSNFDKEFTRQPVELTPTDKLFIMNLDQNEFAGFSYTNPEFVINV
Sequence of ROCK1 (human) (Q13464 whole entry, looked up): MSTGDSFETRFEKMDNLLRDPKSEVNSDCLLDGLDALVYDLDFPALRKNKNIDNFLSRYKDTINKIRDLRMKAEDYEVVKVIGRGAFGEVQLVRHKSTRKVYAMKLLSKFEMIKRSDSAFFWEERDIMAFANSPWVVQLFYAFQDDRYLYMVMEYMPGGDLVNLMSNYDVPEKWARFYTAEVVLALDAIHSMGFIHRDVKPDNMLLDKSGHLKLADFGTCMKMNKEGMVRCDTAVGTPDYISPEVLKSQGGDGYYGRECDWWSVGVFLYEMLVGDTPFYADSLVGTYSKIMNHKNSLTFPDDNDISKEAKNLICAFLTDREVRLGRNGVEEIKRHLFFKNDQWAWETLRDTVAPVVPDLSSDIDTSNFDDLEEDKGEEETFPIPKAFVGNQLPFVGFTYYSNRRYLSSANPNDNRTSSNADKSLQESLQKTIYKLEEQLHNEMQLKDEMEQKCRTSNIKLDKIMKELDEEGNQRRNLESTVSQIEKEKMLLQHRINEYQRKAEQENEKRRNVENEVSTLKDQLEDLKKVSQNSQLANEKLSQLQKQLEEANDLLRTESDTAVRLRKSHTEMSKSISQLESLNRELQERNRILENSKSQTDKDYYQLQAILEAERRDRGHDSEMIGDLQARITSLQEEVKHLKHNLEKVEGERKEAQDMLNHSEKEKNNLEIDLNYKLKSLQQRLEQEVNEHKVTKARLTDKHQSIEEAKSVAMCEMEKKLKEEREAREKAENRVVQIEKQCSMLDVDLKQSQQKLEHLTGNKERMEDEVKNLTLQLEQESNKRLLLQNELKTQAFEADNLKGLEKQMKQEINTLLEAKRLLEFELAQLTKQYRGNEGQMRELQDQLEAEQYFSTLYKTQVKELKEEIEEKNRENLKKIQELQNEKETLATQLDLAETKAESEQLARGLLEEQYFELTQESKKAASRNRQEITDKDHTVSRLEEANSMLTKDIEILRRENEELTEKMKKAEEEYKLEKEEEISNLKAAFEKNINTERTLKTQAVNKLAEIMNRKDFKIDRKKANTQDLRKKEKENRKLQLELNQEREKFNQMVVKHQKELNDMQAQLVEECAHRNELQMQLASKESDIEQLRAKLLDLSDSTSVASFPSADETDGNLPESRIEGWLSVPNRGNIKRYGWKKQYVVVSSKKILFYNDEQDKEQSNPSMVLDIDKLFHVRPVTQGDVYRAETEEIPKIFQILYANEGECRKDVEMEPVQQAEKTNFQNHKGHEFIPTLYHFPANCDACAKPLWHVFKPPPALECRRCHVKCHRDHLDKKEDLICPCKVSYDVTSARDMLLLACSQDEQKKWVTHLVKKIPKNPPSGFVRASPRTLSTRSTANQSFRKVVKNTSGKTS
Sequence of PRKCH (human) (P24723 whole entry, looked up): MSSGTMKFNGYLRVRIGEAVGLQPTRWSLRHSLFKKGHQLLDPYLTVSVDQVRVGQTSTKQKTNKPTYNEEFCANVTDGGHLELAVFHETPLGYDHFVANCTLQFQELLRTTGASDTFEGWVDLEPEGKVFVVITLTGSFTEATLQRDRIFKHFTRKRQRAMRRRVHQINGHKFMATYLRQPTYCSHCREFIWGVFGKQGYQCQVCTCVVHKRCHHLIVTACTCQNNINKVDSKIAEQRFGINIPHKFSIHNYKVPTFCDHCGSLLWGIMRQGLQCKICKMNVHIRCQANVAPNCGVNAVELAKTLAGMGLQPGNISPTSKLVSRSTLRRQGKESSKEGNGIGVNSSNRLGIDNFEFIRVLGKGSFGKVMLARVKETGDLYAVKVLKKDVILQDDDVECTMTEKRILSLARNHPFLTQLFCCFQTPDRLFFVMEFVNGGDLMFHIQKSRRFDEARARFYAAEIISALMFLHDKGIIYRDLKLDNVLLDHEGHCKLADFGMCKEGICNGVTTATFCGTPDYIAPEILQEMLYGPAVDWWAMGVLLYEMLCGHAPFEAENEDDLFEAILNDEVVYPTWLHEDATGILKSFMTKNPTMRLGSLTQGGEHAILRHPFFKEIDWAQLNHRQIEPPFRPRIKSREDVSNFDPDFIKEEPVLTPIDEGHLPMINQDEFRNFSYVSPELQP
Sequence of PRKD3 (human) (O94806 whole entry, looked up): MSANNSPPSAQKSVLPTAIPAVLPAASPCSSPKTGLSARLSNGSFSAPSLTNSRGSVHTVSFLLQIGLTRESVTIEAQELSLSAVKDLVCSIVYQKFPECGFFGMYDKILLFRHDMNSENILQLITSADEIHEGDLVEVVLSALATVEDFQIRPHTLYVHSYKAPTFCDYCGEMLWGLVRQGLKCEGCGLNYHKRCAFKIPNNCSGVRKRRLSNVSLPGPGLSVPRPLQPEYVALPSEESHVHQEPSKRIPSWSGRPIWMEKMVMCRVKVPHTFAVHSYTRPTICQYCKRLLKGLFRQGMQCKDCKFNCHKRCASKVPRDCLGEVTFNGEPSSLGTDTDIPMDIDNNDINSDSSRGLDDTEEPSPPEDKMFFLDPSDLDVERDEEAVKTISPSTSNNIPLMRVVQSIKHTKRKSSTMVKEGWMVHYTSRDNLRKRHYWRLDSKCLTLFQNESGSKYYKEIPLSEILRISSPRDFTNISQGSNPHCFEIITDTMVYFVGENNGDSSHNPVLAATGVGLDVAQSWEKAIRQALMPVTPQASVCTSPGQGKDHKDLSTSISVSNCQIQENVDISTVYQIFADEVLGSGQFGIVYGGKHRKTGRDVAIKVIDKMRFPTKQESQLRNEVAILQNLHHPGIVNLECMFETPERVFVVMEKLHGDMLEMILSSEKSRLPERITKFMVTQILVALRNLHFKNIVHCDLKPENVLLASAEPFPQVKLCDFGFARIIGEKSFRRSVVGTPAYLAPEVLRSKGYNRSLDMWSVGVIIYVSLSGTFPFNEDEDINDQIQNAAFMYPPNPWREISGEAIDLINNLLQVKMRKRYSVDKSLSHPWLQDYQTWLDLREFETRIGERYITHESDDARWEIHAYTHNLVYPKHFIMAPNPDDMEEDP
Sequence of CSNK1G3 (human) (Q9Y6M4 whole entry, looked up): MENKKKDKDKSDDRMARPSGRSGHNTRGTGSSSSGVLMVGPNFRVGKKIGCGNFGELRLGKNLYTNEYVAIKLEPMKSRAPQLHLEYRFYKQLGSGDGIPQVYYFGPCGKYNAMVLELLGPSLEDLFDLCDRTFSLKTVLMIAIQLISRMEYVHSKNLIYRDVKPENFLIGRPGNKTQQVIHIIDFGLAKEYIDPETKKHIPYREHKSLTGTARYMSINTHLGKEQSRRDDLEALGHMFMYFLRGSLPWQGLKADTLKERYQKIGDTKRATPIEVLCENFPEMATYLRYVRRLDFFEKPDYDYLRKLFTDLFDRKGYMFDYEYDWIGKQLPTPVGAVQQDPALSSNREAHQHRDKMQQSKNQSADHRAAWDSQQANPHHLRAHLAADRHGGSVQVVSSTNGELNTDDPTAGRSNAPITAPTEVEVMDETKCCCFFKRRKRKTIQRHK
Sequence of PAK2 (human) (Q13177 whole entry, looked up): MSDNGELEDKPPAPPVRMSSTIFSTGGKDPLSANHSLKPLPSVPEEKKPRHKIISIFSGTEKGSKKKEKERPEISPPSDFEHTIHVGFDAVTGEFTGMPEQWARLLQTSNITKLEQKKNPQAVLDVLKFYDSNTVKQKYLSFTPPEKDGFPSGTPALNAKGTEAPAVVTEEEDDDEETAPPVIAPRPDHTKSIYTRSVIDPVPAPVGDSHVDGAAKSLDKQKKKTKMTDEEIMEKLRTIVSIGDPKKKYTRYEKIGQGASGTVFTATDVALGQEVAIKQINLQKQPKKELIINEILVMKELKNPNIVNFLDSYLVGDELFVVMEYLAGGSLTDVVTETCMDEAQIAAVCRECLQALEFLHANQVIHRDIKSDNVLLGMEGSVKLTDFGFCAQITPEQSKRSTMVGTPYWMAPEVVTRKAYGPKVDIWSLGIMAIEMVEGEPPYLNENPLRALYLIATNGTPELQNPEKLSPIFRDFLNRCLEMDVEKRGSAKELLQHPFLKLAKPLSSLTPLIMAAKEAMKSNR

O=c1cc(N2CCOCC2)oc2c(-c3ccccc3)cccc12
residual activity [1]: 91.3%
residual activity [2]: 98.2%
residual activity [3]: 101%
residual activity [4]: 91.6%
residual activity [5]: 104%
residual activity [6]: 122%
residual activity [7]: 110%
residual activity [8]: 94.1%
residual activity [9]: 93.7%
residual activity [10]: 92.4%
residual activity [11]: 93.5%
residual activity [12]: 105%
residual activity [13]: 98.7%
residual activity [14]: 101%
residual activity [15]: 99.2%
residual activity [16]: 104%
residual activity [17]: 100%
residual activity [18]: 99%
residual activity [19]: 96.8%
residual activity [20]: 99%
residual activity [21]: 109%
residual activity [22]: 101%
residual activity [23]: 94.2%
residual activity [24]: 92%
residual activity [25]: 97.2%
residual activity [26]: 103%
residual activity [27]: 97.3%
residual activity [28]: 95.6%
residual activity [29]: 104%
residual activity [30]: 96.5%
residual activity [31]: 96%
residual activity [32]: 92.1%
residual activity [33]: 101%
residual activity [34]: 101%
residual activity [35]: 112%
residual activity [36]: 105%
residual activity [37]: 92.5%
residual activity [38]: 95.9%
residual activity [39]: 91.4%
residual activity [40]: 96.5%
residual activity [41]: 86.7%

N/C(=N\N=C/c1ccc(-c2cccc([N+](=O)[O-])c2)o1)N[N+](=O)[O-]
residual activity [1]: 102%
residual activity [42]: 97.6%
residual activity [2]: 101%
residual activity [3]: 92.4%
residual activity [4]: 123%
residual activity [5]: 94.9%
residual activity [6]: 103%
residual activity [7]: 111%
residual activity [8]: 94.6%
residual activity [9]: 104%
residual activity [10]: 86.2%
residual activity [11]: 108%
residual activity [12]: 106%
residual activity [13]: 99.3%
residual activity [14]: 90.1%
residual activity [15]: 101%
residual activity [16]: 91.7%
residual activity [17]: 101%
residual activity [19]: 78.2%
residual activity [20]: 98.1%
residual activity [21]: 97.6%
residual activity [22]: 95.4%
residual activity [23]: 96.4%
residual activity [24]: 100%
residual activity [25]: 100%
residual activity [26]: 103%
residual activity [27]: 95.8%
residual activity [28]: 99.3%
residual activity [29]: 95.2%
residual activity [30]: 103%
residual activity [31]: 88.9%
residual activity [32]: 102%
residual activity [33]: 96.7%
residual activity [34]: 88.9%
residual activity [35]: 93.4%
residual activity [36]: 98.7%
residual activity [37]: 93.9%
residual activity [38]: 99.6%
residual activity [39]: 87.6%
residual activity [40]: 95.5%
residual activity [41]: 96.5%

O=S(=O)(NCCNC/C=C/c1ccc(Br)cc1)c1cccc2cnccc12
residual activity [1]: 75.1%
residual activity [42]: 90.8%
residual activity [2]: 88.3%
residual activity [3]: 93.2%
residual activity [4]: 127%
residual activity [6]: 99.2%
residual activity [7]: 107%
residual activity [8]: 90.2%
residual activity [9]: 82.8%
residual activity [10]: 93.3%
residual activity [11]: 94.3%
residual activity [12]: 99.1%
residual activity [13]: 109%
residual activity [15]: 101%
residual activity [16]: 37.8%
residual activity [17]: 92.3%
residual activity [18]: 104%
residual activity [19]: 103%
residual activity [20]: 53.2%
residual activity [21]: 97.4%
residual activity [22]: 97.8%
residual activity [23]: 83.8%
residual activity [24]: 95.3%
residual activity [25]: 88.8%
residual activity [26]: 78.6%
residual activity [27]: 98.5%
residual activity [28]: 89.6%
residual activity [29]: 95.2%
residual activity [30]: 97.4%
residual activity [31]: 88.3%
residual activity [32]: 96.9%
residual activity [33]: 93.5%
residual activity [34]: 83.7%
residual activity [35]: 100%
residual activity [36]: 56.9%
residual activity [37]: 79.2%
residual activity [38]: 91.3%
residual activity [39]: 94.3%
residual activity [40]: 95.8%
residual activity [41]: 113%
